Measured values taken from publication PMC10080078, “Use of phage display biopanning as a tool to design CAR-T cells against glioma stem cells” (Frontiers in Oncology, 2023).
Where “and” joins values, the source holds several entries; their conditions need not be identical. Equal values may be shown once. Where no end group is shown, it is not given here.

Legend:
N-cadherin [1] = assay: Immunoblot of peptide pull-down; assay type: binding; details: biotinylated peptide 40 μg on streptavidin agarose
Method: Cells were lysed using the IP Lysis Buffer Protocol (Pierce, Waltham, MA) as described by the manufacturer. Biotinylated peptides (EV-b and NT-b, 40 μg) were incubated with 100 μL of streptavidin agarose resin at 4°C for 1 hour on a rotator to generate the peptide-coupled streptavidin agarose resin. The protein samples were pre-cleared by incubation of 50 μL of NT-streptavidin agarose resins (4°C on rotator for 1 hour). After centrifugation, the pre-cleared samples were incubated with 150 μL of EV-coupled streptavidin agarose resin at 4°C overnight on rotator. After PBS wash, the resin was pelleted and sent for mass spectrometry analysis (see details in Supplementary Methods ) or eluted with 4x Laemmli Sample Buffer (Bio-Rad, Hercules, CA) containing 1X DTT reducing agent (dithiothreitol, Cell Signaling Technology, Danvers, MA) and boiled for SDS-PAGE. Pulled-down proteins were then separated with a Novex™ WedgeWell™ (ThermoFisher Scientific, Waltham, MA) and transferred to polyvinylidene fluoride (PVDF) membranes (Millipore, Burlington, MA). Membrane-transferred proteins were immunoblotted with an antibody recognizing N-cadherin (1/10000, NBP2-01498, Novus Biologicals, Littleton, CO) ( Supplemental Figure 2 ).

[2] = biological target: T1, N-cadherin extracellular domain, amino acids 160-724 (Homo sapiens, UniProt P19022); assay: Surface plasmon resonance, single cycle kinetics (Biacore T200); assay type: binding
T1 construct: Recombinant Human N-Cadherin extracellular domain, amino acids 160-724; purchased R&D Systems 1388NC050
T1 sequence (P19022 160-724): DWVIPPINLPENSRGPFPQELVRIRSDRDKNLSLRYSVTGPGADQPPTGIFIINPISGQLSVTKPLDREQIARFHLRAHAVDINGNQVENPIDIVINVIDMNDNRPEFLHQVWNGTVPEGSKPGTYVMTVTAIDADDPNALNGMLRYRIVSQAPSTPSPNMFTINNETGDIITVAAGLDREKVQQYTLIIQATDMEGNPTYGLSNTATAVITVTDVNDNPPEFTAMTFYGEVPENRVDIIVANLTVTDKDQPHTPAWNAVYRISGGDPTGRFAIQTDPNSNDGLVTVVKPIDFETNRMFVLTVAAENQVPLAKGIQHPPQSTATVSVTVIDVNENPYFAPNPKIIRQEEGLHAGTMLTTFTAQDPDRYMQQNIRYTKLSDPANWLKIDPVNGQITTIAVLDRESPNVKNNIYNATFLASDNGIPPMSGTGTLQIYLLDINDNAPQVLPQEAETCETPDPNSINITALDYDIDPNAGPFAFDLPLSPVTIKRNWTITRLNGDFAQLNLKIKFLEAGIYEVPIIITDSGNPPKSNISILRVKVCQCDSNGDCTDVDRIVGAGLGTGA
Method: The direct binding measurements between N-cadherin and EV peptide by surface plasmon resonance was performed by immobilizing N-cadherin protein (Recombinant Human N-Cadherin extracellular domain, amino acids 160-724, 1388NC050, R&D Systems, Minneapolis, MN) to a CM5 sensor chip surface docked in Biacore T200 (Cytiva, Marlborough, MA) at 25°C using an amine-coupling method. Prior to immobilization, the chip was primed and equilibrated with a running buffer containing 20 mM HEPES, pH 7.4, 1 mM TCEP, 2 mM CaCl2 and 150 mM NaCl at a flow rate of 10 µL/min. The carboxymethyl surface of the CM5 chip was manually activated for 7 minutes using a 1:1 ratio of 0.4 M 1-ethyl-3-(3-[…]) carbodiimide hydrochloride (EDC) and 0.1 M N-hydroxysuccinimide (NHS) to achieve a density of about 10,000 RU per flow cell. N-cadherin protein stock (1.12 µM) was diluted to 100 nM in 10 mM sodium acetate, pH 4.5, and manually injected over the surface at the same flow rate. […]
For kinetic titration experiments, the same running buffer was used except with the inclusion of 5% DMSO. […] Sensorgrams were solvent corrected, buffer referenced, and the on-rate, off-rate, and equilibrium binding constants were calculated from the sensorgrams by global fitting of a 1:1 binding model, using analysis software (version 3.0) provided with Biacore T200 instrument (Cytiva).

[3] = tested on: intracranial GBM xenografts; details: ref ([22], [23]); cited from earlier work
Text: (§1) Figure 1 Peptide selection. Schematic representation of phage display strategies used to isolate the GSC-targeting peptides E (AWEFYFP) and V (SSQPFWS). […] Authors’ elaboration based on prior data from ([22], [23]).

N-cadherin [4] = details: by itself; ref manuscript under review; cited from earlier work
Text: Our study has illustrated the utility and feasibility of designing novel antigen-binding domains for CAR-T cells by using two short peptides of just seven amino acids each to induce functional recognition of GSCs.

GSCs = details: ref ([22], [23]), cited from earlier work; for targeting of GSCs in vitro: previously demonstrated
Method: We have previously isolated glioblastoma stem cell targeting peptides through a combination of in vitro and in vivo biopanning strategies ([22], [23]). In vitro biopanning was performed by screening a random 7 amino acid phage peptide library against differentiated stem cells and glioblastoma stem cells grown in culture to isolate GSC-specific targeting peptides ( Figure 1A ). Two types of in vivo biopanning were performed, one against mice with intracranial GBM xenografts ( Figure 1B ) and one with subcutaneous flank xenografts ( Figure 1C ). Two peptides were selected for use in subsequent e ... || Figure 1 Peptide selection. Schematic representation of phage display strategies used to isolate the GSC-targeting peptides E (AWEFYFP) and V (SSQPFWS). […] Authors’ elaboration based on prior data from ([22], [23]).

[5] = tested on: subcutaneous flank GBM xenografts; details: ref ([22], [23]); cited from earlier work
Text: as §1

[6] = biological target: T2, Recombinant Human N-Cadherin extracellular domain, amino acids 160-724 (human, UniProt P19022 160-724); assay: ELISA; plates coated with 2.5 μg/mL recombinant N-cadherin; biotinylated peptides at different concentrations in PBS-2%-BSA, 1 hour at RT; streptavidin-HRP; details: both partners purified
T2 construct: N-cadherin (CDH2), human, extracellular domain, amino acids 160-724; also called recombinant N-cadherin; recombinant extracellular N-cadherin protein; source: bought: R&D Systems
T2 sequence (looked up): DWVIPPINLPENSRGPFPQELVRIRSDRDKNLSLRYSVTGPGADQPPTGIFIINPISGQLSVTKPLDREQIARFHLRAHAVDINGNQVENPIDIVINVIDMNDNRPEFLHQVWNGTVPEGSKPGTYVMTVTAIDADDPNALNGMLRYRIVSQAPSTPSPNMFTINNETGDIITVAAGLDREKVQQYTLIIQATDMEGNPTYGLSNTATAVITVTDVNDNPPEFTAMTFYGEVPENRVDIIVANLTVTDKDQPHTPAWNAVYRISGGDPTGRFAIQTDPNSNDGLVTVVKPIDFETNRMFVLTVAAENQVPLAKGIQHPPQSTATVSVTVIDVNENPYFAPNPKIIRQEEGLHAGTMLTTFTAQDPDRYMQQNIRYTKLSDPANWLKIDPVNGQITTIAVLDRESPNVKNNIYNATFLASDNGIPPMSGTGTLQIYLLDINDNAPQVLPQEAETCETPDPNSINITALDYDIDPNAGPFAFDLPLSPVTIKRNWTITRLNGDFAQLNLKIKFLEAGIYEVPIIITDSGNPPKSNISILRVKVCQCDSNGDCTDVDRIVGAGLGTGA

[7] = biological target: T2, Recombinant Human N-Cadherin …; assay: SPR; N-cadherin amine-coupled to CM5 chip (about 3500 RU), Biacore T200, 25°C; 20 mM HEPES pH 7.4, 1 mM TCEP, 2 mM CaCl2, 150 mM NaCl, 5% DMSO; single cycle kinetics, peptide 2 to 167 µM; 1:1 binding model; details: both partners purified

FAYPEWFGGGGSGGGGSGGGGSPSWSFSQ [NT, reference compound]
N-cadherin antibody signal in peptide pull-down immunoblot (N-cadherin [1]): absent
SPR response / KD of NT peptide ([2]; identical condition, NT peptide in SPR is GGGSGGG, could not be fitted for reliable extraction of the KD): did not exhibit significant resonance units

AWEFYFP [isolated from both the in vitro and intracranial in vivo biopanning]
enrichment in in vivo biopanning, intracranial [3]: one of the most enriched
binding of single peptide E to N-cadherin (N-cadherin [4]): positive binding to N-cadherin
targeting of GSCs in vitro (GSCs): specificity for targeting GSCs in vitro
enrichment in in vitro biopanning (GSCs): one of the most enriched

AWEFYFPGGGGSGGGGSGGGGSSSQPFWS [EV]
kon ([2]; CM5 chip, 25°C, 20 mM HEPES pH 7.4, 1 mM TCEP, 2 mM CaCl2, 150 mM NaCl, 5% DMSO, EV 2 to 167 µM, 1:1 model, first run, read-out: on-rate (ka)): 2620 M⁻¹ s⁻¹

SSQPFWS [V, isolated from the subcutaneous flank biopanning]
enrichment in in vivo biopanning on subcutaneous tumors [5]: one of the most enriched
targeting of GSCs in vitro (GSCs): specificity for targeting GSCs in vitro

B1: biotinylated dual peptide EV (EV-b) (peptide)
peptide: AWEFYFPGGGGSGGGGSGGGGSSSQPFWS
modifications: also: biotin conjugated, position not given here
notes: 29 amino acids; also called EV-biotinylated peptide; source: synthetic peptide (LifeTein)
binding result [6]: binds

B2: EV peptide as used in surface plasmon resonance (peptide)
peptide: AWEFYFPGGGGSGGGGSGGGGSSSQPFWS
notes: dual peptide EV; the SPR methods say only 'EV peptide'; source: synthetic peptide
Kd [7]: 9.4 µM and 8.45 µM and 7.5 µM
koff [7]: 0.0196 s⁻¹
